Measurements published in patent US10668283B2, “Brain stimulation tool configuration” (Elminda Ltd., priority 2014, dated 2020).

Columns and labels:
Format in all cases: in vivo, human
ADHD subject = assay: BNA pattern similarity from EEG data of ADHD subjects before and after MPH treatment
Text: The BNA patterns shown in FIGS. 6A-D are associated subject-specific BNA patterns constructed from EEG data recorded from a particular ADHD subject. The black dots in FIGS. 6A-D show the locations of the EEG electrodes. The color codes in these BNA patterns are the same as defined above. The subject-specific BNA patterns shown in FIGS. 6A-B describe the association of the ADHD subject to a group of untreated ADHD subjects, and the BNA patterns shown in FIGS. 6C-D describe the association of the ADHD subject to a group of ADHD subjects all treated with methylphenidate (MPH). The subject-specific BNA patterns shown in FIGS. 6A and 6C are based on EEG data recorded from the ADHD subject before any treatment, and subject-specific BNA patterns shown in FIGS. 6B and 6D are based on EEG data recorded from the ADHD subject following a treatment with MPH.
The baseline annotated BNA pattern constructed from the group of untreated ADHD subjects, and the baseline annotated BNA pattern constructed from the same group of subjects, but following treatment with MPH are shown in FIGS. 6E and 6F, respectively.
A BNA pattern similarity was calculated for each of the subject-specific BNA patterns shown in FIGS. 6A-D. The calculated similarity corresponding to the BNA pattern of FIG. 6A is 0.73, the calculated similarity corresponding to the BNA pattern of FIG. 6B is 0.19, the calculated similarity corresponding to the BNA pattern of FIG. 6C is 0.56, and the calculated similarity corresponding to the BNA pattern of FIG. 6D is 0.6.
The BNA patterns shown in FIGS. 7A-D were constructed from EEG data recorded from a different ADHD subject, which was also treated with MPH according to the same protocol as described above with respect to the responder subject of FIGS. 6A-D. The black dots in FIGS. 7A-D show the locations of the EEG electrodes, and the color codes in these BNA patterns is the same as defined above. Thus, the subject-specific BNA patterns shown in FIGS. 7A-B describe the association of the ADHD subject to a group of untreated ADHD subjects, and the BNA patterns shown in FIGS. 7C-D describe the association of the ADHD subject to a group of ADHD subjects all treated with methylphenidate (MPH). The subject-specific BNA patterns shown in FIGS. 7A and 7C are based on EEG data recorded from the ADHD subject before any treatment, and subject-specific BNA patterns shown in FIGS. 7B and 7D are based on EEG data recorded from the ADHD subject following a treatment with MPH.

groups of subjects = assay: Group BNA patterns from EEG data recorded during a working memory test (cue/probe face matching); conditions: memorization and retrieval, versus placebo
Text: FIGS. 10A-H show group BNA patterns constructed from EEG data recorded from two groups of subjects during a working memory test. The black dots in FIGS. 10A-H show the locations of the EEG electrodes, and the color codes in these BNA patterns is the same as defined above. During the test, each subject of the group was asked to memorize an image of a human face (referred to as the “cue”). Two seconds later, the subject was again presented with an image of a human face (referred to as the “probe”) and was asked to determine whether the probe matches the cue.
The BNA patterns of the first group are shown in FIGS. 10A-D. FIGS. 10A and 10B are group BNA patterns constructed following treatment with a placebo (referred to below as placebo A), and FIGS. 10C and 10D are group BNA patterns constructed following treatment with a Scopolamine. The BNA patterns of the second group are shown in FIGS. 10E-H, where FIGS. 10E and 10F are group BNA patterns constructed following treatment with a placebo (referred to below as placebo B), and FIGS. 10G and 10H are BNA patterns constructed following treatment with a Ketamine.
The BNA pattern of FIGS. 10A, 10C, 10E and 10G were constructed from the data acquired during the time at which the cue was presented and are recognized by the present inventor as containing information pertaining to the memorization process in the brain (also known in the literature as “encoding”). The BNA patterns of FIGS. 10B, 10D, 10F and 10H were constructed from the data acquired during the time at which the probe was presented, and are recognized by the present inventor as containing information pertaining to the retrieval process in the brain. It is noted that the BNA patterns of FIGS. 10A-H describe differentiating activity networks. Thus, for example, the BNA pattern of FIG. 10A describes the brain activity during cue that most differentiated between placebo A and Scopolamine, and the BNA pattern of […] describes the brain activity during cue that most differentiated between placebo B and Ketamine.

[1] = test system: healthy volunteer subjects; assay: BNA pattern similarity from EEG data of healthy volunteers during an attention-related oddball task after scopolamine; clinical behavioral endpoint; conditions: for BNA pattern similarity to baseline BNA pattern of healthy subjects following placebo: following scopolamine
Text: FIGS. 8A-D show associated subject-specific BNA patterns constructed from EEG data recorded from two healthy volunteer subjects. The black dots in FIGS. 8A-D show the locations of the EEG electrodes, and the color codes in these BNA patterns are the same as defined above. The subject-specific BNA patterns shown in FIGS. 8A-D describe the association of the subjects to a group of healthy subjects following treatment with a placebo drug and while performing an attention task related oddball task.
FIGS. 8A and 8C are subject-specific BNA patterns constructed from EEG data collected from a first subject (FIG. 8A) and a second subject (FIG. 8C) following treatment with a placebo, and FIGS. 8B and 8D are subject-specific BNA patterns constructed from EEG data collected from the first subject (FIG. 8B) and the second subject (FIG. 8D) following treatment with a scopolamine drug. Scopolamine is an anticholinergic drug with inhibitory effect on M2-cholinergic receptors of excited type. It has an inhibitory effect on the cerebral cortex, typically inducing slight-anesthetic effect.
A BNA pattern similarity was calculated for each of the subject-specific BNA patterns shown in FIGS. 8A-D. The calculated similarities are 0.937, 0.079, 1.0 and 0.94, respectively. It is recognized by the present inventors that these similarity values indicate that the responsivity to scopolamine is high for the first subject (FIGS. 8A and 8B) and low for the second subject (FIGS. 8C and 8D).

healthy volunteers = assay: Scopolamine induced cognitive impairment model: ΔBNA scores in Auditory Oddball Task against SEM of the normative database; conditions: scopolamine 0.4 mg, Novel stimulus, connectivity score; only 2 patients receiving placebo
Text: The task chosen for this study was the Auditory Oddball Task, but other tasks are not excluded from the scope of the present invention. FIG. 21 is a schematic representation of an Auditory Oddball Task used in this study. The task included 600 repetitive 1000 ms auditory stimulations of which 80% were 2000 Hz stimuli (Frequent—blue circles), 10% were 1000 Hz stimuli requiring a motor response (Target—red circles) and 10% were rare non-targets composed of various sounds (Novel—yellow star). The stimuli were separated by 1500 ms intervals. The sound was delivered through a headset at a sound pressure level of 70 dB.
A pharmacological model study included 13 healthy volunteers of both genders, Aged 18-45. The volunteers were subjected to 3 Consecutive BNA sessions were, 1 week apart. A first session was used as a baseline, one of the two other sessions included administration of scopolamine (0.4 mg), and the other of the two other sessions included administration of placebo. The second and third sessions were at random order, double blind. ΔBNA Score values (Baseline—Placebo and Baseline—Drug) were evaluated against SEM values.
Shown are Plots of the ΔBNA (Baseline—treatment) connectivity score values for the Novel response. Each symbol is a single subject, tested once following Drug and once following Placebo. […]

| SMILES | BNA pattern similarity to the group of untreated ADHD subjects (ADHD subject; different ADHD subject (FIG. 7B), following treatment with MPH, 0 before treatment) | BNA pattern similarity to the group of ADHD subjects treated with MPH (ADHD subject; different ADHD subject (FIG. 7D), following treatment with MPH, 0.06 before treatment) | responsiveness of the subject to the treatment as indicated by similarity values (ADHD subject; different ADHD subject (FIGS. 7A-D)) | BNA pattern similarity to the baseline BNA pattern for untreated ADHD group (ADHD subject; first ADHD subject (FIG. 6B), following single dose treatment with MPH, 0.73 before treatment) | BNA pattern similarity to the baseline BNA pattern for the treated ADHD group (ADHD subject; first ADHD subject (FIG. 6D), following single dose treatment with MPH, 0.56 before treatment) | responsiveness of the subject to the treatment as indicated by similarity values (ADHD subject; first ADHD subject (FIGS. 6A-D)) | effect on central and frontal activation in group BNA pattern (groups of subjects) | effect on fronto-parietal part / connectivity of group BNA pattern (groups of subjects) | effect on right lateralization in group BNA pattern (groups of subjects) | BNA pattern similarity to baseline BNA pattern of healthy subjects following placebo ([1]; first subject (FIG. 8B), 0.937 following placebo) | responsivity to scopolamine as indicated by similarity values ([1]; first subject (FIGS. 8A and 8B)) | decrease in behavioral endpoint (clinical observations) ([1]; first subject, following treatment with scopolamine) [%] | BNA pattern similarity to baseline BNA pattern of healthy subjects following placebo ([1]; second subject (FIG. 8D), 1.0 following placebo) | responsivity to scopolamine as indicated by similarity values ([1]; second subject (FIGS. 8C and 8D)) | change in behavioral endpoint (clinical observations) ([1]; second subject, following treatment with scopolamine) | patients with post-treatment BNA scores more than 2 SEM lower than the baseline score (healthy volunteers) |
| --- | --- | --- | --- | --- | --- | --- | --- | --- | --- | --- | --- | --- | --- | --- | --- | --- |
| COC(=O)C(c1ccccc1)C1CCCCN1 (stereo not drawn) [MPH, methylphenidate] | 0 | 0 | not responsive to the treatment | 0.19 | 0.6 | responsive to the treatment |  |  |  |  |  |  |  |  |  |  |
| CNC1(c2ccccc2Cl)CCCCC1=O (stereo not drawn) [ketamine] |  |  |  |  |  |  | increased central and frontal activation | No significant change in the fronto-parietal part of the BNA pattern | decreased right lateralization |  |  |  |  |  |  |  |
| CN1[C@@H]2C[C@@H](OC(=O)[C@H](CO)c3ccccc3)C[C@H]1[C@@H]1O[C@@H]12 [scopolamine] |  |  |  |  |  |  | extensive compensatory central and frontal activation | low connectivity between frontal and parietal regions |  | 0.079 | high | 70 | 0.94 | low | no change in behavioral endpoint | Eight out of 13 |
